According to patent publication US20120238557A1, “AMINOTHIAZINE OR AMINOOXAZINE DERIVATIVE HAVING AMINO LINKER” (SHIONOGI & CO., LTD., priority 2009, published 2012):

How the values were obtained:
[1] = tested on: Neuroblastoma SH-SY5Y cells (SH/APPwt) with human wild-type β-APP excessively expressed; test: Measurement of β-amyloid (Aβ) production inhibitory effect in cell; format: cell-based; details: amount needed to inhibit Aβ production by 50%, SH/APPwt cells, 24 hours, Table 3, read-out: IC50
Protocol: Neuroblastoma SH-SY5Y cells (SH/APPwt) with human wild-type β-APP excessively expressed therein were prepared at 8×10^5 cells/mL, and 150 μl portions thereof were inoculated into each well of a 96-well culture plate (Falcon). The cells were cultured for 2 hours at 37° C. in a 5% gaseous carbon dioxide incubator. Then, a solution which had been preliminarily prepared by adding and suspending the test compound (DMSO (dimethyl sulfoxide) solution) so as to be 2 μl/50 μl medium was added to the cell sap. Namely, the final DMSO concentration was 1%, and the amount of the cell culture was 200 μl. After the incubation was performed for 24 hours from the addition of the test compound, 100 μl of the culture supernatant was collected from each fraction. The amount of the Aβ in each fraction was measured.
The Aβ amount was measured as follows. 10 μl of a homogeneous time resolved fluorescence (HTRF) measurement reagent (Amyloid β 1-40 peptide; IBA Molecular Holding, S. A.) and 10 μl of the culture supernatant were put into a 384-well half area microplate (black microplate, Costar) and mixed with each other, and then left standing overnight at 4° C. while the light was shielded. Then, the fluorescence intensity (excitation wavelength: 337 nm, measurement wavelength: 620 nm and 665 nm) was measured with a Wallac 1420 multilabel counter (Perkin Elmer life sciences).

[2] = Brain distribution studies; format: in vivo; details: brain/plasma; rat, intravenous 0.5 mg/mL/kg, 30 minutes later; read-out: brain Kp value (area ratio brain/plasma)
Protocol: Intravenous administration is carried out to a rat by 0.5 mg/mL/kg dosage of the compound. […] Then, the brain was extracted and 20-25% of homogenate thereof was prepared with distilled water. On the other hand, the obtained blood is used as plasma after centrifuging. Then, to the brain sample was added the control plasma at 1:1. To the plasma samples was added the control brains at 1:1. Each sample was measured using LC/MS/MS. The obtained area ratio (a brain/plasma) was used for the brain Kp value.

Recombinant human BACE1 = molecular target: T1, Recombinant human BACE1 (Homo sapiens, UniProt P56817); test: Assay of BACE1 inhibiting activity; format: biochemical; details: 50% inhibitory concentration against enzymatic activity of recombinant human BACE1; Table 2
T1 construct: purchased R&D Systems
T1 sequence (P56817 46-501): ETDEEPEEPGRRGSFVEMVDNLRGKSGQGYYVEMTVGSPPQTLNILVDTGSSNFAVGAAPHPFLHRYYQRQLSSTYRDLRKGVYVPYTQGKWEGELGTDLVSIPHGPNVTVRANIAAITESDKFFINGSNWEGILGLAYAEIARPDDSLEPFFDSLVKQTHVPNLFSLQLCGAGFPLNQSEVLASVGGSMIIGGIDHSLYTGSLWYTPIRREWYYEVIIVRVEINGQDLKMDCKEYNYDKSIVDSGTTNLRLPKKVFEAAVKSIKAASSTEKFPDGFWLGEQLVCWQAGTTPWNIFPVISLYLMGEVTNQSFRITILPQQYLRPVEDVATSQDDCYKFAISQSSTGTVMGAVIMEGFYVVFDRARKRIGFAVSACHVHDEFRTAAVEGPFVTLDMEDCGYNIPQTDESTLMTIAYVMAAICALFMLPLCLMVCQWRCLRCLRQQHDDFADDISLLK

IC50 [1]: 9 nM | Kp at 0.5 h [2]: 2.2 | IC50 (Recombinant human BACE1): 100 nM
SMILES: C[C@@]1(c2cc(Nc3ncccc3C#N)ccc2F)CCSC(N)=N1 [Compound I-11]
